# Read-outs that look alike come from different tables or passages of the source.
# Biological target: T1, Full-length glucokinase (beta cell isoform) (Homo sapiens, UniProt P35557)
# T1 construct: Full-length glucokinase (beta cell isoform) was His-tagged at N-terminus; His tag (N); made in house
# T1 sequence (P35557 1-465): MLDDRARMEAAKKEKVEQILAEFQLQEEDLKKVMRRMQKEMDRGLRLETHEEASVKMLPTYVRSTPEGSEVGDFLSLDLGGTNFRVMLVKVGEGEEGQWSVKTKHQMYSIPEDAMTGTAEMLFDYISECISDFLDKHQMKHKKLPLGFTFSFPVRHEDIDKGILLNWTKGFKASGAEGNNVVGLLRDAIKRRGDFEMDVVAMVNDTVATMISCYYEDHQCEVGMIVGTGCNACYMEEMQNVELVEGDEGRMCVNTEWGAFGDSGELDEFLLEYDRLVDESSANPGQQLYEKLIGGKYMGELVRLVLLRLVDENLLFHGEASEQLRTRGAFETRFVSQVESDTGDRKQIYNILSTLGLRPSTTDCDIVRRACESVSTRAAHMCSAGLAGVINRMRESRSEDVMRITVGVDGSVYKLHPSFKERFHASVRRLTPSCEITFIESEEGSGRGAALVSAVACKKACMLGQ
# Assay: Glucokinase biochemical assay (PK/LDH-coupled, NADH depletion at 340 nm): % activation, EC50, % max activation
# Conditions: for activation at 10 µM: read-out: % Activation at 10 uM; for EC50: GK activation; for Emax: read-out: % Max Activation
# Outline: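 N-terminally His-tagged full-length human beta-cell glucokinase, room temperature, 5 mM glucose, 1 mM ATP, PK/LDH-coupled with 0.7 mM NADH, 1% DMSO final. Initial velocity from the 200–900 s slope of A340 decline. % activation = (Va/Vo−1)×100, measured across compound concentrations.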
# [1] = 10 uM compound, 5 mM glucose, % Activation=(Va/Vo−1)×100
# [2] = 5 mM glucose, fitted maximum activation
SMILES,activation at 10 µM [1] [%],"EC50 (5 mM glucose, read-out: EC50) [µM]",Emax [2] [%],% Activation at 10 uM [1] [%],% Max Activation [2] [%],"EC50 (EC50 (uM), 5 mM glucose) [µM]",activation at 10 µM [%],Emax [%]
"Cn1ccc(NC(=O)c2cc(Oc3ccc(C(=O)N4CCCCC4)c(F)c3)c3c(c2)OC(C)(C)C3)n1 [Example 61, 4-[3-Fluoro-4-(piperidine-1-carbonyl)-phenoxy]-2,2-dimethyl-2,3-dihydro-benzofuran-6-carboxylic acid(1-methyl-1H-pyrazol-3-yl)-amide]",109,0.1,107,,,,,
"COCc1cc2c(Oc3ccc(S(C)(=O)=O)cc3)cc(C(=O)Nc3cc(OC)ccn3)cc2o1 [Example 314, 2-(Methoxymethyl)-N-(4-methoxypyridin-2-yl)-4-[4-(methylsulfonyl)phenoxy]-1-benzofuran-6-carboxamide]",47.3,0.33,46,,,,,
"Cn1ncc(NC(=O)c2cc(Oc3ccc(S(=O)(=O)C4CC4)cc3)c3c(c2)OC(C)(CO)C3)n1 (stereo not drawn) [Example 246, 4-(4-Cyclopropanesulfonyl-phenoxy)-2-hydroxymethyl-2-methyl-2,3-dihydro-benzofuran-6-carboxylic acid (2-methyl-2H-[1,2,3]triazol-4-yl)-amide]",222,0.16,261,,,,,
"Cn1ccc(NC(=O)c2cc(Oc3ccc(C#N)c(F)c3)c3c(c2)OC(C)(C)C3)n1 [Example 183, 4-(4-Cyano-3-fluoro-phenoxy)-2,2-dimethyl-2,3-dihydro-benzofuran-6-carboxylic acid (1-methyl-1H-pyrazol-3-yl)-amide]",237,1.9,236,,,,,
"Cc1ccc(NC(=O)c2cc(Oc3ccc(S(C)(=O)=O)cc3)c3cc(C(=O)N(C)C)oc3c2)nc1 [Example 285, N2,N2-Dimethyl-N6-(5-methylpyridin-2-yl)-4-(4-(methylsulfonyl)-phenoxy)-benzofuran-2,6-dicarboxamide]",121,0.547,118,,,,,
"Cc1cc2cc(C(=O)Nc3ccn(C)n3)cc(Oc3ccc(S(C)(=O)=O)cc3)c2o1 [Example 338, 2-Methyl-N-(1-methyl-1H-pyrazol-3-yl)-7-[4-(methylsulfonyl)-phenoxy]-1-benzofuran-5-carboxamide]",84.5,4.3,147,,,,,
"COCC1Cc2c(Oc3ccc(C(=O)N4CCC4)cc3)cc(C(=O)Nc3ccn(C)n3)cc2O1 (single isomer, unassigned; (-)) [Example 209, (−)-4-[4-(Azetidine-1-carbonyl)-phenoxy]-2-methoxymethyl-2,3-dihydro-benzofuran-6-carboxylic acid (1-methyl-1H-pyrazol-3-yl)-amide]",,0.38,,87,96,,,
"Cc1ccc(NC(=O)c2cc(Oc3ccc(C(=O)N4CCC4)c(F)c3)c3c(c2)OC(C)(CO)C3)nc1 (stereo not drawn) [Example 240, 4-[4-(Azetidine-1-carbonyl)-3-fluoro-phenoxy]-2-hydroxymethyl-2-methyl-2,3-dihydro-benzofuran-6-carboxylic acid (5-methyl-pyridin-2-yl)-amide]",,,,,,0.021,83,94
"CNC(=O)c1ncc(Oc2cc(C(=O)Nc3ccn(C)n3)cc3c2CC(C)(C)O3)cn1 [Example 171, 5-[2,2-Dimethyl-6-(1-methyl-1H-pyrazol-3-ylcarbamoyl)-2,3-dihydro-benzofuran-4-yloxy]-pyrimidine-2-carboxylic acid methylamide]",171,3.6,213,,,,,
"Cc1ccc(NC(=O)c2cc(OC3CN(C(=O)N(C)C)C3)c3cc(C)oc3c2)nc1 [Example 324, N,N-Dimethyl-3-[(2-methyl-6-{[(5-methylpyridin-2-yl)amino]-carbonyl}-1-benzofuran-4-yl)oxy]azetidine-1-carboxamide]",18.2,,,,,,,
"Cc1cc2c(Oc3ccc(S(=O)(=O)N4CCC4)cc3)cc(C(=O)Nc3ccn(C)n3)cc2o1 [Example 294, 4-(4-(Azetidin-1-ylsulfonyl)phenoxy)-2-methyl-N-(1-methyl-1H-pyrazol-3-yl)benzofuran-6-carboxamide]",122,0.2,132,,,,,
"Cn1ccc(NC(=O)c2cc(OCc3ccccc3)c3c(c2)OC(C)(C)C3)n1 [Example 80, 4-Benzyloxy-2,2-dimethyl-2,3-dihydro-benzofuran-6-carboxylic acid (1-methyl-1H-pyrazol-3-yl)-amide]",111,5.9,176,,,,,
"CCNC(=O)c1ccc(Oc2cc(C(=O)Nc3ccn(C)n3)cc3c2CC(C)(C)O3)cc1F [Example 70, 4-(4-Ethylcarbamoyl-3-fluoro-phenoxy)-2,2-dimethyl-2,3-dihydro-benzofuran-6-carboxylic acid(1-methyl-1H-pyrazol-3-yl)-amide]",132,0.15,118,,,,,
"Cn1ccc(NC(=O)c2cc(Oc3ccc(S(C)(=O)=O)cc3)c3c(c2F)OC(C)(C)C3)n1 [Example 190, 7-Fluoro-4-(4-methanesulfonyl-phenoxy)-2,2-dimethyl-2,3-dihydro-benzofuran-6-carboxylic acid (1-methyl-1H-pyrazol-3-yl)-amide]",83.9,7.3,138,,,,,
"Cn1ccc(NC(=O)c2cc(Oc3ccc(-c4ncon4)nc3)c3c(c2)OC(C)(C)C3)n1 [Example 182, 2,2-Dimethyl-4-(6-[1,2,4]oxadiazol-3-yl-pyridin-3-yloxy)-2,3-dihydro-benzofuran-6-carboxylic acid (1-methyl-1H-pyrazol-3-yl)-amide]",244,0.29,237,,,,,
"Cn1ncc(NC(=O)c2cc(Oc3ccc(-c4ncon4)cc3)c3c(c2)OC(C)(C)C3)n1 [Example 188, 2,2-Dimethyl-4-(4-[1,2,4]oxadiazol-3-yl-phenoxy)-2,3-dihydro-benzofuran-6-carboxylic acid (2-methyl-2H-[1,2,3]triazol-4-yl)-amide]",198,0.62,230,,,,,
"Cn1ccc(NC(=O)c2cc(Oc3ccc(-c4ncon4)cc3)c3c(c2)OC(C)(C)C3)n1 [Example 187, 2,2-Dimethyl-4-(4-[1,2,4]oxadiazol-3-yl-phenoxy)-2,3-dihydro-benzofuran-6-carboxylic acid (1-methyl-1H-pyrazol-3-yl)-amide]",178,> 10,,,,,,
"Cc1ncccc1COc1cc(C(=O)Nc2ccn(C)n2)cc2c1CC(C)(C)O2 [Example 106, 2,2-Dimethyl-4-(2-methyl-pyridin-3-ylmethoxy)-2,3-dihydro-benzofuran-6-carboxylic acid (1-methyl-1H-pyrazol-3-yl)-amide]",143,2.4,141,,,,,
"Cn1ccc(NC(=O)c2cc(Oc3ccc(CO)cc3F)c3c(c2)OC(C)(C)C3)n1 [Example 40, 4-(2-Fluoro-4-hydroxymethyl-phenoxy)-2,2-dimethyl-2,3-dihydro-benzofuran-6-carboxylic acid(1-methyl-1H-pyrazol-3-yl)-amide]",,3.6,,109,150,,,
"Cc1cc2c(Oc3ccc(S(C)(=O)=O)cc3)cc(C(=O)Nc3cnn(C)n3)cc2o1 [Example 267, 2-Methyl-N-(2-methyl-2H-1,2,3-triazol-4-yl)-4-(4-(methylsulfonyl)phenoxy)-benzofuran-6-carboxamide]",145,1.7,165,,,,,
